Results taken from patent US10238670B2, “9-aminomethyl minocycline compounds and methods of use thereof in urinary tract infection (UTI) treatment” (Paratek Pharmaceuticals, Inc., priority 2016, dated 2019).

Experiments:
[1] = test system: K. pneumoniae FQS; assay: In vitro MIC, 2010 surveillance isolates; assay type: cell-based, Klebsiella pneumoniae; conditions: N=1561
[2] = test system: E. coli FQS; assay: In vitro MIC, 2010 surveillance isolates; assay type: cell-based, Escherichia coli; conditions: N=2906
[3] = In vitro activity at pH 6.0 in media; assay type: cell-based
[4] = test system: baseline pathogen; assay: Phase 1b study, per-pathogen microbiological response at PTE (urine culture); assay type: in vivo, human
Description: At screening and at all study visits (i.e., screening, daily while on treatment, and at EOT and PTE visits) a microbiologic evaluation of the infection under study was performed. A clean-catch midstream urine sample was collected and immediately sent to the local microbiology laboratory for microscopic examination and culture. Quantitative urine culture by appropriate methods was performed using a calibrated loop that would identify bacteria at a lower limit of 1×10^3 CFU/mL. In general, bacteria identified at 1×10^5 colony forming units (CFU)/mL or greater were considered a bacterial pathogen (probability of true pathogen was greater than probability of contamination). In addition, if the same bacteria was isolated in the blood and in the urine at any CFU count it was considered a pathogen. Culture results were to include identification of all pathogens to the level of genus and species. In vitro antimicrobial susceptibility testing of the isolates to antimicrobial drugs that may be used to treat UTIs was performed locally using a standard method chosen by the laboratory. The microbiological outcome was determined programmatically based on the local and Central Laboratory microbiological analyses. For an isolate to be considered a pathogen at screening, it must presented in the urine sample at ≥10^5 CFU/mL or the pathogen should be isolated from both the blood and urine at any CFU count. Microbiological outcome was defined as: • Eradication: […] The pathogens isolated at baseline were presented by genus and species by treatment group. The number and percentage of subjects with a by-subject and by-pathogen eradication, persistence and indeterminate microbiologic response were presented. A listing of all baseline and post-baseline isolates was provided.

[5] = Enterococcus faecalis, IV_PO300
[6] = Overall Gram Negative Pathogens, IV_PO300
[7] = Overall Gram Negative Pathogens, PO300
[8] = Overall Gram Negative Pathogens, PO450
[9] = Overall Gram Positive Pathogens, IV_PO300
[10] = Overall Gram Positive Pathogens, PO300
[11] = Overall Gram Positive Pathogens, PO450
[12] = Staphylococcus saprophyticus, PO450
[13] = Streptococcus agalactiae - (Group B), PO300

With `CN(C)c1cc(CNCC(C)(C)C)c(O)c2c1C[C@H]1C[C@H]3[C@H](N(C)C)C(O)=C(C(N)=O)C(=O)[C@@]3(O)C(O)=C1C2=O` [Compound 1, 9-[(2,2-dimethyl-propylamino)-methyl]-minocycline] as the molecule, how does the “Cumulative % Inhibition at MIC” value ([1]; MIC 1 μg/ml) read?
The value was 29.6%.

And the “Cumulative % Inhibition at MIC” value ([1]; MIC 2 μg/ml)?
Its value is 79.3%.

And the “Cumulative % Inhibition at MIC” value ([1]; MIC 4 μg/ml)?
Its value is 92.5%.

And the “Cumulative % Inhibition at MIC” value ([1]; MIC 8 μg/ml)?
Its value is 95.9%.

And the “Cumulative % Inhibition at MIC” value ([1]; MIC 16 μg/ml)?
The value was 98.5%.

And the “Cumulative % Inhibition at MIC” value ([1]; MIC ≤0.5 μg/ml, listed as head image P00011)?
The value was 2.4%.

And the “Cumulative % Inhibition at MIC” value ([1]; MIC ≥32 μg/ml)?
Its value is 100%.

What about the “Cumulative % Inhibition at MIC” value ([2]; MIC 1 μg/ml) of the same molecule?
The value was 87.0%.

What about the “Cumulative % Inhibition at MIC” value ([2]; MIC 2 μg/ml) of the same molecule?
The value was 96.6%.

And the “Cumulative % Inhibition at MIC” value ([2]; MIC 4 μg/ml)?
The value was 99.6%.

What about the “Cumulative % Inhibition at MIC” value ([2]; MIC 8 μg/ml) of the same molecule?
Its value is 99.9%.

And the “Cumulative % Inhibition at MIC” value ([2]; MIC 16 μg/ml)?
The value was 99.9%.

What about the “Cumulative % Inhibition at MIC” value ([2]; MIC ≤0.5 μg/ml, listed as head image P00007) of the same molecule?
Its value is 58.5%.

What about the “Cumulative % Inhibition at MIC” value ([2]; MIC ≥32 μg/ml) of the same molecule?
Its value is 100%.

And the “in vitro activity at pH 6.0 in media” value [3]?
The value was “somewhat decreased”.

What about the Eradication ([4]; Aerococcus urinae, PO450) of the same molecule?
The Eradication was 1 (100.0) n (%).

And the Indeterminate ([4]; Aerococcus urinae, PO450)?
Its Indeterminate is 0 (0.0) n (%).

What about the Persistence ([4]; Aerococcus urinae, PO450) of the same molecule?
Its Persistence is 0 (0.0) n (%).

What about the Eradication [4, 5] of the same molecule?
The Eradication was 1 (100.0) n (%).

And the Indeterminate [4, 5]?
Its Indeterminate is 0 (0.0) n (%).

What about the Persistence [4, 5] of the same molecule?
Its Persistence is 0 (0.0) n (%).

And the Eradication ([4]; Escherichia coli, IV_PO300)?
The Eradication was 3 (100.0) n (%).

And the Indeterminate ([4]; Escherichia coli, IV_PO300)?
The Indeterminate was 0 (0.0) n (%).

What about the Persistence ([4]; Escherichia coli, IV_PO300) of the same molecule?
Its Persistence is 0 (0.0) n (%).

And the Eradication ([4]; Escherichia coli, PO300)?
Its Eradication is 2 (66.7) n (%).

And the Indeterminate ([4]; Escherichia coli, PO300)?
The Indeterminate was 0 (0.0) n (%).

What about the Persistence ([4]; Escherichia coli, PO300) of the same molecule?
Its Persistence is 1 (33.3) n (%).

What about the Eradication ([4]; Escherichia coli, PO450) of the same molecule?
The Eradication was 2 (50.0) n (%).

What about the Indeterminate ([4]; Escherichia coli, PO450) of the same molecule?
The Indeterminate was 0 (0.0) n (%).

And the Persistence ([4]; Escherichia coli, PO450)?
Its Persistence is 2 (50.0) n (%).

What about the Eradication ([4]; Klebsiella pneumoniae, PO300) of the same molecule?
The Eradication was 1 (100.0) n (%).

What about the Indeterminate ([4]; Klebsiella pneumoniae, PO300) of the same molecule?
The Indeterminate was 0 (0.0) n (%).

What about the Persistence ([4]; Klebsiella pneumoniae, PO300) of the same molecule?
The Persistence was 0 (0.0) n (%).

And the Eradication ([4]; Klebsiella pneumoniae, PO450)?
Its Eradication is 1 (50.0) n (%).

What about the Indeterminate ([4]; Klebsiella pneumoniae, PO450) of the same molecule?
The Indeterminate was 0 (0.0) n (%).

What about the Persistence ([4]; Klebsiella pneumoniae, PO450) of the same molecule?
Its Persistence is 1 (50.0) n (%).

And the Eradication [4, 6]?
The Eradication was 6 (100.0) n (%).

What about the Indeterminate [4, 6] of the same molecule?
The Indeterminate was 0 (0.0) n (%).

What about the Persistence [4, 6] of the same molecule?
Its Persistence is 0 (0.0) n (%).

And the Eradication [4, 7]?
Its Eradication is 4 (100.0) n (%).

And the Indeterminate [4, 7]?
Its Indeterminate is 0 (0.0) n (%).

And the Persistence [4, 7]?
The Persistence was 1 (25.0) n (%).

What about the Eradication [4, 8] of the same molecule?
Its Eradication is 3 (50.0) n (%).

And the Indeterminate [4, 8]?
The Indeterminate was 0 (0.0) n (%).

What about the Persistence [4, 8] of the same molecule?
Its Persistence is 3 (50.0) n (%).

And the Eradication [4, 9]?
Its Eradication is 1 (100.0) n (%).

And the Indeterminate [4, 9]?
The Indeterminate was 0 (0.0) n (%).

What about the Persistence [4, 9] of the same molecule?
Its Persistence is 0 (0.0) n (%).

And the Eradication [4, 10]?
The Eradication was 1 (100.0) n (%).

And the Indeterminate [4, 10]?
Its Indeterminate is 0 (0.0) n (%).

What about the Persistence [4, 10] of the same molecule?
Its Persistence is 0 (0.0) n (%).

What about the Eradication [4, 11] of the same molecule?
Its Eradication is 2 (100.0) n (%).

What about the Indeterminate [4, 11] of the same molecule?
The Indeterminate was 0 (0.0) n (%).

And the Persistence [4, 11]?
Its Persistence is 0 (0.0) n (%).

What about the Eradication ([4]; Proteus mirabilis, IV_PO300) of the same molecule?
The Eradication was 3 (100.0) n (%).

What about the Indeterminate ([4]; Proteus mirabilis, IV_PO300) of the same molecule?
The Indeterminate was 0 (0.0) n (%).

What about the Persistence ([4]; Proteus mirabilis, IV_PO300) of the same molecule?
Its Persistence is 0 (0.0) n (%).

And the Eradication ([4]; Proteus mirabilis, PO300)?
The Eradication was 1 (100.0) n (%).

What about the Indeterminate ([4]; Proteus mirabilis, PO300) of the same molecule?
The Indeterminate was 0 (0.0) n (%).

What about the Persistence ([4]; Proteus mirabilis, PO300) of the same molecule?
Its Persistence is 0 (0.0) n (%).

What about the Eradication [4, 12] of the same molecule?
Its Eradication is 1 (100.0) n (%).

And the Indeterminate [4, 12]?
Its Indeterminate is 0 (0.0) n (%).

And the Persistence [4, 12]?
The Persistence was 0 (0.0) n (%).

And the Eradication [4, 13]?
Its Eradication is 1 (100.0) n (%).

What about the Indeterminate [4, 13] of the same molecule?
The Indeterminate was 0 (0.0) n (%).

And the Persistence [4, 13]?
The Persistence was 0 (0.0) n (%).
